In patent US5591728A, “New phosphonic acid compounds” (Adir Et Compagnie, priority 1993, dated 1997):
Where a name gives a salt, the structure may show the parent alone.

Experiments:
[1] = tested on: big ET-1-induced pressor responses (inhibition of ECE); assay: In vivo study on pithed rats: big ET-1-induced pressor response; set-up: species or system Sprague-Dawley rats; settings: for IC50 with respect to big ET-1: big ET-1 1 nmol/kg injection, product given by infusion
From the text: (§1) Sprague-Dawley rats (300400 g) are anesthetized with ether. The animals are then pithed and placed under artificial respiration. The vagus nerves are sectioned and the carotid arteries ligated. A catheter is introduced into one of the carotid arteries to measure arterial blood pressure. A second catheter is introduced into the vein of the penis to enable substances to be injected.
After a stabilization period, the animals receive an injection of endothelin-1 (ET-1; 0.5 nmol/kg) or its precursor, big endothelin-1 (big ET-1; 1 nmol/kg).

[2] = tested on: pressor responses obtained with big ET-1; assay: In vitro study on perfused isolated rat kidney: pressor response to big ET-1; set-up: species or system male Wistar rats; settings: big ET-1 0.4 nmol bolus
Description: The studies are performed on kidneys prepared from male Wistar rats (300400 g). The rats are anesthetized with pentobarbitone sodium (50 mg/kg i.p.) and the left kidney is prepared so as to permit perfusion with Tyrode solution. The variations in perfusion pressure are measured continuously. The perfusion flow rate is 6 ml/min. After stabilization, a bolus injection of ET- 1 (0.03 nmol) or of big ET-1 (0.4 nmol) is performed and the pressor response is recorded. […] The IC50 values of the products are calculated and the results are given in μM.

[3] = tested on: ET-1-induced hypertension; assay: In vivo study on pithed rats: ET-1-induced hypertension; set-up: species or system Sprague-Dawley rats; settings: ET-1 0.5 nmol/kg
From the text: as §1
After a stabilization period, the animals receive an injection of endothelin-1 (ET-1; 0.5 nmol/kg) or its precursor, big endothelin-1 (big ET-1; 1 nmol/kg). The pressor responses are recorded and, after the pressure has returned to its initial value (1 h 30 min to 2 hours), a second injection of ET-1 or of big ET-1 is given in the presence or absence of an infusion of a product of the invention or of the reference substance, phosphoramidon. Phosphoramidon and the products of the invention had no effect on ET-1-induced hypertension.

| IC50 with respect to big ET-1 [1] [µg/kg/min] | IC50 [2] [µM] | Compound | inhibition of big ET-1-induced pressor responses ([1]; big ET-1 1 nmol/kg, in words) | effect on ET-1-induced hypertension [3] | inhibition of pressor responses obtained with big ET-1 ([2]; in words) |
| --- | --- | --- | --- | --- | --- |
| 100 | 4 | CC(C)C[C@H](NP(=O)(O)OCC(O)CO)C(=O)N[C@@H](Cc1c[nH]c2ccccc12)C(=O)O (stereo partly drawn) [Example 1, N-[(2,3-Dihydroxypropoxy)hydroxyphosphinyl]-(S)Leu-(S) Trp-OH disodium salt] |  |  |  |
| 280 | 5 | CCOC(=O)[C@H](Cc1c[nH]c2ccccc12)NC(=O)[C@H](CC(C)C)NP(=O)(O)OCCO [Example 3, N-[(2-Hydroxyethoxy)hydroxyphosphinyl]-(S)Leu-(S)Trp-OEt disodium salt] |  |  |  |
| 430 | 7 | CC(C)C[C@H](NP(=O)(O)OCCO)C(=O)N[C@@H](Cc1c[nH]c2ccccc12)C(=O)O [Example 4, N-[(2-Hydroxyethoxy)hydroxyphosphinyl]-(S)Leu-(S)Trp-OH disodium salt] |  |  |  |
| 480 |  | CC(C)C[C@H](NP(=O)(O)OC(CO)CO)C(=O)N[C@@H](Cc1c[nH]c2ccccc12)C(=O)O [Example 8, N-{[(1-Hydroxymethyl-2-hydroxy)ethoxy]hydroxyphosphinyl]-(S)Leu-(S) Trp-OH dilithium salt] |  |  |  |
| 200 |  | CCOC(=O)[C@H](Cc1c[nH]c2ccccc12)NC(=O)[C@H](CC(C)C)NP(=O)(O)OCCCN [Example 9, N-[(3-Aminopropoxy)hydroxyphosphinyl]-(S)Leu-(S)Trp-OEt lithium salt] |  |  |  |
| 230 |  | N-[((R)-2,3-Dihydroxypropoxy)hydroxyphosphinyl]-(S)Leu-(S)Trp-OH dilithium salt [Example 10] |  |  |  |
| 100 |  | N-[((S)-2,3-Dihydroxypropoxy)hydroxyphosphinyl]-(S)Leu-(S)Trp-OH dilithium salt [Example 11] |  |  |  |

| Compound | IC50 with respect to big ET-1 [1] [µg/kg/min] | IC50 [2] [µM] | inhibition of big ET-1-induced pressor responses ([1]; big ET-1 1 nmol/kg, in words) | effect on ET-1-induced hypertension [3] | inhibition of pressor responses obtained with big ET-1 ([2]; in words) |
| --- | --- | --- | --- | --- | --- |
| CC(C)C[C@H](NP(=O)(O)OCCC(O)CO)C(=O)N[C@@H](Cc1c[nH]c2ccccc12)C(=O)O (stereo partly drawn) [Example 12, N-[(3,4-Dihydroxybutoxy)hydroxyphosphinyl]-(S)Leu-(S) Trp-OH dilithium salt] | 140 |  |  |  |  |
| CC(C)C[C@H](NP(=O)(O)O[C@@H]1O[C@@H](C)[C@H](O)[C@@H](O)[C@H]1O)C(=O)N[C@@H](Cc1c[nH]c2ccccc12)C(=O)[O-].CC(C)C[C@H](NP(=O)(O)O[C@@H]1O[C@@H](C)[C@H](O)[C@@H](O)[C@H]1O)C(=O)N[C@@H](Cc1c[nH]c2ccccc12)C(=O)[O-].[Na+].[Na+] [Phosphoramidon, N-[α-(S)-(rhamnopyranosyloxy) hydroxyphosphinyl]-(S)leu-(S) Trp-OH disodium salt, reference compound] | 125 | 0.9 | inhibited big ET-1-induced pressor responses in a dose-dependent manner | no effect | substantially inhibited |
